The target of one test is GPR174 (Homo sapiens, UniProt Q9BXC1). In words: CRE-Luc reporter Gs signaling assay with GPR174. It counts as cell-based. Further details: host or cells: HEK293 or CHO cell lines (ATCC). The conditions noted are these: pCRE-Luc reporter; for EC50: multiple values = separate experiments.
The next test concerns human PBMCs. In words: Th1 cytokines in supernatants of stimulated human PBMC, GPR174 inhibitor with adenosine pathway inhibitors (Examples 15, 18-22). The class given is cell-based. The conditions noted are these: for IFN-γ, ratio relative to vehicle control (Veh column) / IL-2, ratio relative to vehicle control (Veh column) / TNF, ratio relative to vehicle control (Veh column): Cmpd 10 1, ZM 0.1, PBF 0.1, SCH 0.2 μM, ADA 0.75 μg/mL; for IFN-γ, ratio relative to vehicle control (MRS) / IL-2, ratio relative to vehicle control (MRS column) / TNF, ratio relative to vehicle control (MRS column): MRS-1754 1 μM added to the agent(s) of the label, label MRS = MRS alone. The method, then: Human PBMCs, obtained from a human volunteer donor, were dispensed at density of 1×10^6 cells/well in a 96-well flat-bottom plate and were stimulated in triplicate with 1 μg/mL anti-CD3 antibody (UCHT1) and 0.1 μg/mL anti-CD28 antibody (CD28.2) in the presence of:
Supernatants from these cells were collected at 24 hours post-stimulation and the levels of IFN-γ were determined by ELISA assay. Statistical analysis was carried out using one-way ANOVA with Tukey's post-hoc multiple comparison's correction.
Human PBMCs, obtained from a human volunteer donor (donor 1), were dispensed in X-vivo15 media (Lonza) supplemented with Glutamax, penicillin and streptomycin, at density of 1×10^6 cells/well in a 96-well flat-bottom plate and were stimulated with 1 μg/mL anti-CD3 antibody (UCHT1) and 0.1 μg/mL anti-CD28 antibody (CD28.2) in the presence of:
Supernatants from these cells were collected at 24 hours post-stimulation and the levels of IFN-γ, IL-2 and TNF were determined by ELISA assays.
Human PBMCs, obtained from two individual human volunteer donors (donor 2 and donor 3), were dispensed at density of 1×10^6 cells/well in a 96-well flat-bottom plate and were stimulated with 1 μg/mL anti-CD3 antibody (UCHT1) and 0.1 μg/mL anti-CD28 antibody (CD28.2) in the presence of:
Human PBMCs, obtained from twelve individual human volunteer donors were dispensed at density of 1×10^6 cells/well in a 96-well flat-bottom plate and were stimulated in triplicate with 1 μg/mL anti-CD3 antibody (UCHT1) and 0.1 μg/mL anti-CD28 antibody (CD28.2) in the presence of:
A total of 44 experiments using PBMC from 12 healthy donors were tested (9 donors for GM-CSF), with each donor tested in 1 to 8 separate experiments, depending on the donor (1 to 4 experiments each for GM-CSF). […] Cytokines were detected in supernatants with the Legendplex (Biolegend) or the MSB (MesoScale) platforms. […] One-way ANOVA with Tukey's post-hoc multiple comparisons correction was performed to identify significant differences (FC, mean fold change; ****, p<0.0001, ***, p<0.001; **, p<0.01; *, p<0.05, ns, not significant).
Human PBMC (1×10^6 cells/well in a 96-well flat-bottom plate) obtained from donor 3 and donor 6 were stimulated with 1 μg/mL anti-CD3 antibody (UCHT1) and 0.1 μg/mL anti-CD28 antibody (CD28.2) in the presence of:
Supernatants from these cells were collected at 24 hours post-stimulation and the levels of IFN-γ, IL-2, and TNF were determined with the MSD platform (MesoScale Discovery).
Human PBMC (1×10^6 cells/well in a 96-well flat-bottom plate) obtained from donor 7 were stimulated with 1 μg/mL […] (UCHT1) and 0.1 μg/mL anti-CD28 antibody (CD28.2) in the presence of:
Supernatants from these cells were collected at 24 hours post-stimulation and the levels of IFN-γ, IL-2, TNF and GM-CSF were determined with the MSD platform (MesoScale Discovery).
Supernatants from these cells were collected at 24 hours post-stimulation and the levels of IFN-γ, IL-2 and TNF were determined with the MSD platform (MesoScale Discovery).

The EC50 is the concentration at which the effect is half-maximal. Low values mean a more potent agent, high ones a less potent agent.

Values joined by “and” are separate entries in the source; they are usually repeats but may differ in a detail not shown here. Equal entries are not always repeated. Marks after values point to notes of the source that are not given here.

Chain of GPR174 (Q9BXC1 whole entry): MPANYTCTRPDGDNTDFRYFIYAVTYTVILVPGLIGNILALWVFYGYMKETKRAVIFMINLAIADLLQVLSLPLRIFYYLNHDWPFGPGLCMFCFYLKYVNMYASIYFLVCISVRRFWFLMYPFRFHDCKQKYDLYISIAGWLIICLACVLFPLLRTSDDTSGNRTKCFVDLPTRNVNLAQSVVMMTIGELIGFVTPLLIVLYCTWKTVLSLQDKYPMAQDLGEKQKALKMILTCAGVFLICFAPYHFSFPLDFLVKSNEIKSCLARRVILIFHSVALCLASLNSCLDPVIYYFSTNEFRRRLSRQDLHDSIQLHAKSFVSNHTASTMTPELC

As to `CCC(=O)N1CCN(c2cc(N3CCC(C)CC3)c(F)cc2[N+](=O)[O-])CC1` [compound 8], on GPR174, the “Fold decrease in Gs signaling activity” value is given as 3.3 fold; the concentration giving a half-maximal response (EC50) was 0.7 µM and 0.4 µM.
In the case of `CC1CCN(c2cc(N3CCN(C(=O)c4cccs4)CC3)c([N+](=O)[O-])cc2F)CC1` [compound 12], at GPR174, the “Fold decrease in Gs signaling activity” value amounted to 3.9 fold; the EC50 is 0.4 µM and 0.7 µM.
As to `Cc1ccc(S(=O)(=O)N2CCN(c3cc(N4CCC(C)CC4)c(F)cc3[N+](=O)[O-])CC2)cc1` [compound 14], at GPR174, the “Fold decrease in Gs signaling activity” value stood at 3 fold and a half-maximal effect (EC50) was put at 1.1 µM.
The matching figures for `Cc1ccc(S(=O)(=O)N2CCN(c3cc(N4CCCCC4)c(F)cc3[N+](=O)[O-])CC2)cc1` [compound 15]: 2.6 fold and 1.7 µM.
The matching figures for `CC(C)C(=O)N1CCN(c2cc(N3CCCCC3C)c(F)cc2[N+](=O)[O-])CC1` (centres unmarked) [compound 16]: 2.1 fold and 0.8 µM.
On the same counts, the results for `CC1CCCCN1c1cc(N2CCN(C(=O)C(C)(C)C)CC2)c([N+](=O)[O-])cc1F` (centres unmarked) [compound 17] are 2.0 fold and 3 µM.
For `CCOC(=O)N1CCN(c2cc(N3CCCCC3C)c(F)cc2[N+](=O)[O-])CC1` (centres unmarked) [compound 18], on GPR174, the “Fold decrease in Gs signaling activity” value is 1.9 fold and the 50% effective concentration (EC50) was found to be 1 µM.
On the same counts, the results for `O=C1CCCC2=C1C(c1cccc(O)c1)C1=C(N2)c2ccccc2C1=O` (centres unmarked) [compound 24] are 2.8 fold and 4.4 µM.
`O=C1CCCC2=C1C(c1ccccc1)C1=C(N2)c2ccccc2C1=O` (centres unmarked) [compound 25]: on GPR174, the “Fold decrease in Gs signaling activity” value came to 4.2 fold and the EC50 is 4.6 µM.
For the molecule `COc1cc(C2C3=C(CCCC3=O)NC3=C2C(=O)c2ccccc23)ccc1O` (centres unmarked) [compound 26], at GPR174, the “Fold decrease in Gs signaling activity” value came out at 1.7 fold and a half-maximal response (EC50) required 3.6 µM.
For the molecule `CCc1ccc(C2C3=C(CCCC3=O)NC3=C2C(=O)c2ccccc23)cc1` (centres unmarked) [compound 27], on GPR174, the “Fold decrease in Gs signaling activity” value is 6.2 fold; the EC50 is 0.8 µM and 0.5 µM.
For the molecule `COc1cccc(C2C3=C(CCCC3=O)NC3=C2C(=O)c2ccccc23)c1` (centres unmarked) [compound 28], on GPR174, the “Fold decrease in Gs signaling activity” value is 1.9 fold and the concentration for a half-maximal effect (EC50) came to 3.6 µM.
On the same counts, the results for `CC(C)c1ccc(C2C3=C(CCCC3=O)NC3=C2C(=O)c2ccccc23)cc1` (centres unmarked) [compound 29] are 5.3 fold and 1.2 µM.
As to `CCOc1ccc(C2C3=C(CCCC3=O)NC3=C2C(=O)c2ccccc23)cc1OCC` (centres unmarked) [compound 30], on GPR174, the “Fold decrease in Gs signaling activity” value is reported as 2.2 fold and a half-maximal response (EC50) required 3.8 µM.
The matching figures for `O=C1CCCC2=C1C(c1ccc(-c3ccccc3)cc1)C1=C(N2)c2ccccc2C1=O` (centres unmarked) [compound 32]: 3.9 fold and 2.5 µM.
In the case of `Cc1nnc(-c2ccc(C3C4=C(CCCC4=O)NC4=C3C(=O)c3ccccc34)cc2)o1` (centres unmarked) [compound 34], at GPR174, the “Fold decrease in Gs signaling activity” value is 8.4 fold and the midpoint of the response, the EC50, lay at 2.8 µM.
Take `O=C1CCCC2=C1C(c1ccc(F)cc1)C1=C(N2)c2ccccc2C1=O` (centres unmarked) [compound 35]: on GPR174, the “Fold decrease in Gs signaling activity” value stood at 2.8 fold and a half-maximal effect (EC50) was put at 4.3 µM.
On the same counts, the results for `O=C1CCCC2=C1C(c1cccnc1)C1=C(N2)c2ccccc2C1=O` (centres unmarked) [compound 37] are 2.8 fold and 5.4 µM.
On the same counts, the results for `O=C1CCCC2=C1C(c1ccc([N+](=O)[O-])cc1)C1=C(N2)c2ccccc2C1=O` (centres unmarked) [compound 38] are 8.6 fold and 2.7 µM.
The matching figures for `O=C1CCCC2=C1C(c1ccc(Cl)cc1)C1=C(N2)c2ccccc2C1=O` (centres unmarked) [compound 39]: 7.8 fold and 3 µM.
With `CS(=O)(=O)c1ccc(C2C3=C(CCCC3=O)NC3=C2C(=O)c2ccccc23)cc1` (centres unmarked) [compound 40], on GPR174, the “Fold decrease in Gs signaling activity” value turned out to be 8.8 fold and the EC50 stood at 3.3 µM.
On the same counts, the results for `CCCOc1ccc(C2C3=C(CCCC3=O)NC3=C2C(=O)c2ccccc23)cc1` (centres unmarked) [compound 41] are 13.7 fold and 1 µM.
On the same counts, the results for `O=C1CCCC2=C1C(c1ccc(N3CCCC3=O)cc1)C1=C(N2)c2ccccc2C1=O` (centres unmarked) [compound 43] are 5.1 fold and 5.2 µM.
Consider `CC(C)(C)Oc1ccc(C2C3=C(CCCC3=O)NC3=C2C(=O)c2ccccc23)cc1` (centres unmarked) [compound 44], for which, on GPR174, the “Fold decrease in Gs signaling activity” value worked out at 4.7 fold and the midpoint of the response, the EC50, lay at 1.3 µM.
On the same counts, the results for `O=C1CCCC2=C1C(c1ccc(OC3CCCC3)cc1)C1=C(N2)c2ccccc2C1=O` (centres unmarked) [compound 45] are 7.6 fold and 1 µM.
Consider `O=C1CCCC2=C1C(c1ccc(OC(F)F)cc1)C1=C(N2)c2ccccc2C1=O` (centres unmarked) [compound 46], for which, on GPR174, the “Fold decrease in Gs signaling activity” value came out at 8.1 fold and the EC50 was determined as 1.2 µM.
The matching figures for `O=C1CCCC2=C1C(c1ccc(Oc3ccccc3)cc1)C1=C(N2)c2ccccc2C1=O` (centres unmarked) [compound 47]: 7.1 fold and 1 µM.
On the same counts, the results for `O=C1CCCC2=C1C(c1ccc(OC(F)(F)F)cc1)C1=C(N2)c2ccccc2C1=O` (centres unmarked) [compound 48] are 5 fold and 1.2 µM.

B1: ADA: adenosine deaminase, an enzyme that catabolizes adenosine into inosine (protein, UniProt P00813 2-363, looked up)
Adenosine deaminase: AQTPAFDKPKVELHVHLDGSIKPETILYYGRRRGIALPANTAEGLLNVIGMDKPLTLPDFLAKFDYYMPAIAGCREAIKRIAYEFVEMKAKEGVVYVEVRYSPHLLANSKVEPIPWNQAEGDLTPDEVVALVGQGLQEGERDFGVKARSILCCMRHQPNWSPKVVELCKKYQQQTVVAIDLAGDETIPGSSLLPGHVQAYQEAVKSGIHRTVHAGEVGSAEVVKEAVDILKTERLGHGYHTLEDQALYNRLRQENMHFEICPWSSYLTGAWKPDTEHAVIRLKNDQANYSLNTDDPLIFKSTLDTDYQMTKRDMGFTEEEFKRLNINAAKSSFLPEDEKRELLDLLYKAYGMPPSASAGQNL
As to B1, in the test with human PBMCs (donor 3), the “IFN-γ, MRS/Veh: ratio in the presence vs. the absence of MRS-1754” value is recorded as 0.7*; the “IL-2, MRS/Veh: ratio in the presence vs. the absence of MRS-1754” value is given as 0.9; the “TNF, MRS/Veh: ratio in the presence vs. the absence of MRS-1754” value worked out at 0.9; the “IFN-γ, ratio relative to vehicle control (MRS)” value was determined as 1.1 fold. Also, in the test on human PBMCs (donor 3), the “IL-2, ratio relative to vehicle control (MRS column)” value is 1.9* fold and the “TNF, ratio relative to vehicle control (MRS column)” value is 1.9* fold. Moreover, in the test with human PBMCs (donor 3, no MRS), the “IFN-γ, ratio relative to vehicle control (Veh column)” value is reported as 1.7* fold; the “IL-2, ratio relative to vehicle control (Veh column)” value is 2.2* fold; the “TNF, ratio relative to vehicle control (Veh column)” value is 2.2* fold. For the same molecule, in the test on human PBMCs (donor 6), the “IFN-γ, MRS/Veh: ratio in the presence vs. the absence of MRS-1754” value stood at 1.3; the “IL-2, MRS/Veh: ratio in the presence vs. the absence of MRS-1754” value stood at 1.0; the “TNF, MRS/Veh: ratio in the presence vs. the absence of MRS-1754” value is reported as 1.2*; the “IFN-γ, ratio relative to vehicle control (MRS)” value is 1.5* fold. For the same molecule, in the test on human PBMCs (donor 6), the “IL-2, ratio relative to vehicle control (MRS column)” value is on record as 1.3* fold and the “TNF, ratio relative to vehicle control (MRS column)” value is recorded as 1.4* fold. In addition, in the test with human PBMCs (donor 6, no MRS), the “IFN-γ, ratio relative to vehicle control (Veh column)” value turned out to be 1.2 fold; the “IL-2, ratio relative to vehicle control (Veh column)” value is 1.3* fold; the “TNF, ratio relative to vehicle control (Veh column)” value is given as 1.2* fold.

Source of the values: patent publication US20200345725A1, “Methods and Compositions for Treating Cancer” (Omeros Corporation, priority 2019, published 2020).
